This note sets out measurements from article PMC6982951, “The N’-Substituted Derivatives of 5-Chloro-3-Methylisothiazole-4-Carboxylic Acid Hydrazide with Antiproliferative Activity” (Molecules, 2019).

Where “and” joins values, the source holds several entries; their conditions need not be identical. Equal values may be shown once.

Series [1] deals with MV4-11 (human biphenotypic B cell myelomonocytic leukemia). The experiment in a line: MTT antiproliferative assay, 72 h exposure. It is filed as cell-based. The text has this:
(§1) Established in vitro, human cell lines MV4-11 (human biphenotypic B myelomonocytic leukemia), MCF-7 (breast cancer), LoVo (colon cancer), LoVo/DX (colon cancer drug resistant), and MCF-10A (normal breast epithelial) were used. The lines were obtained from the American Type Culture Collection (lines MV4-11, LoVo, LoVo/DX, MCF-10A; Rockville, MD, USA) or from the European Collection of Authenticated Cell Cultures (line MCF-7) and are being maintained at the Hirszfeld Institute of Immunology and Experimental Therapy PAS, Wroclaw, Poland.
(§2) MV4-11 cells were cultured in the RPMI 1640 medium (HIIET PAS, Poland) supplemented with 1.0 mM sodium pyruvate, 2 mM L-glutamine and 10% FBS (all from Sigma Aldrich, Steinheim, Germany), LoVo cells were cultured in the F-12K medium (Life Technologies, Carlsbad, CA, United States) supplemented with 10% FBS (GE Healthcare, Chicago, IL, USA), and LoVo/DX cells were cultured in the mixture of RPMI 1640+OptiMEM (1:1) medium (HIIET PAS) supplemented with 5% FBS (GE Healthcare, Chicago, IL, USA), 2 mM L-glutamine, 1.0 mM sodium pyruvate (all from Sigma Aldrich, Steinheim, Germany) and 0.1 µg/mL doxorubicin chloride (Accord).
(§3) Test solutions of the compounds tested (50 mM) were prepared by dissolving the substances in DMSO (Sigma Aldrich). Afterwards, the tested compounds were diluted in a culture medium to reach the final concentrations at the range of 1-80 μg/mL (250, 125, 25 and 5 μM).
(§4) Twenty-four hours prior to the addition of the tested compounds, the cells were plated in 96-well plates (Sarstedt, Germany) at a density of 1 × 10^4 or 0.75 × 10^4 (MCF-7) cells per well. The assay was performed after 72 h of exposure to varying concentrations of the tested agents. The in vitro cytotoxic effect of all agents was examined using the MTT (MV4-11) or SRB assay. The results were calculated as IC50 (inhibitory concentration 50%) the concentration of tested agent, which is cytotoxic for 50% of the cancer cells. Each compound in each concentration was tested in triplicate in a single experiment, which was repeated 3–4 times.
This technique was applied for cells growing in suspension culture. An assay was performed after 72 h exposure to varying concentrations of the tested agents. For the last 4 h of incubation, 20 µL of MTT solution was added to each well (MTT: 3-(4,5-dimethylthiazol-2-yl)-2,5-diphenyl tetrazolium bromide; stock solution: 5 mg/mL, Sigma Aldrich). When the incubation time was completed, 80 µL of the lysing mixture was added to each well (lysing mixture: 225 mL dimethylformamide, POCh, Gliwice, Poland, 67.5 g sodium dodecyl sulfate, Sigma Aldrich, and 275 mL of distilled water). After 24 h, when formazan crystals had been dissolved, the optical densities of the samples were read on Synergy H4 photometer (BioTek Instruments, USA) at 570 nm wavelength. The background optical density was measured in the wells filled with culture medium, without the cells.
(In general: Tetrazolium assays rely on reduction of a dye to a coloured formazan, in cell work by metabolically active cells.)

For series [2], the system named is MCF-7 (breast adenocarcinoma). Kind of series: SRB antiproliferative assay, 72 h exposure. In kind it is cell-based, human. To be noted: Homo sapiens, MCF7, 72 h, MCF-7, SRB, read-out: IC50 ± SD MCF-7.
Source text: as §1
(§5) MCF-7 cells were cultured in the Eagle’s medium (HIIET PAS, Poland) supplemented with 10% FBS, 8 µg/mL insulin, 2 mM L-glutamine and 1% MEM-non essential amino acid solution 100X (all from Sigma Aldrich, Steinheim, Germany). MCF-10A cells were cultured in the HAM’S F-12 with L-glutamine medium (Corning) supplemented with 10% Hors Serum (Gibco), 10 µg/mL insulin, 0.5 µg/mL hydrocortisone, 20 ng/mL EGFh and 0.05 mg/mL Cholera Toxin from Vibrio cholerae (all from Sigma Aldrich, Steinheim, Germany). All culture mediums were supplemented with 100 units/mL penicillin (Polfa Tarchomin S.A. Poland), and 100 µg/mL streptomycin (Sigma Aldrich). All cell lines were grown at 37 °C with 5% CO2 humidified atmosphere.
as §3, §4
(§6) This technique was applied for the cytotoxicity screening against cells growing in adherent culture. The details of this technique were described by Skehan et. al.. The cytotoxicity assay was performed after 72 h exposure of the cultured cells to varying concentrations of the tested agents. The cells attached to the plastic were fixed by gently layering cold 50% TCA (trichloroacetic acid, Sigma Aldrich) on the top of the culture medium in each well. The plates were incubated at 4 °C for 1 h and then washed five times with tap water. The cellular material fixed with TCA was stained with 0.1% sulforhodamine B (SRB, Sigma Aldrich) dissolved in 1% acetic acid (POCh) for 30 min. Unbound dye was removed by rinsing (4×) with 1% acetic acid. The protein-bound dye was extracted with 10 mM unbuffered Tris base (Sigma Aldrich) for determination of optical density (at 540 nm) on Synergy H4 photometer (BioTek Instruments). The background optical density was measured in the wells filled with culture medium, without the cells.
In general terms: The SRB assay estimates cell density from bound dye.

Series [3] concerns MCF-10A (normal non-tumorigenic epithelial cell line derived from mammary gland). The experiment in a line: SRB cytotoxicity assay, 72 h exposure. To be noted: Homo sapiens; MCF-10A normal cells, SRB, 72 h; read-out: IC50 ± SD MCF-10A. In kind it is cell-based, human.
Source text: as §1, §5, §3, §4, §6

For series [4], the system named is LoVo (human colon adenocarcinoma, sensitive). Kind of series: SRB antiproliferative assay, 72 h exposure. The conditions noted are these: Homo sapiens, read-out: IC50 ± SD LoVo. It is filed as cell-based.
Source text: as §1, §2, §3, §4, §6

Series [5] deals with LoVo/DX (human colon adenocarcinoma, resistant to doxorubicin). Kind of series: SRB antiproliferative assay, 72 h exposure; resistance index. It is filed as cell-based.
Source text: as §1, §2, §3, §4
The resistance indexes (RI) were calculated by dividing the IC50 values of the compounds tested against the cells of drug resistant cell LoVo/DX line by respective values obtained against the cells of drug sensitive LoVo line (Table 2). According to Harker et al., three categories of the cells could be distinguished: (a) the cells are drug-sensitive if the ratio approaches 0–2; (b) the cells are moderately drug-resistant if the ratio ranges from 2 to 10; (c) the cells are markedly drug-resistant if the ratio is higher than 10.
as §6

`COc1cccc(/C=N/NC(=O)c2c(C)nsc2Cl)c1` [Compound 7, 5-Chloro-N’-[(E)-(3-methoxyphenyl)methylidene]-3-methylisothiazole-4-carbohydrazide]: the melting point (in general, the temperature, or range, at which the solid turns liquid) lay within 139 to 140 °C. The IC50 (commonly the concentration needed to halve the response being measured) in series [1] (Homo sapiens, MV4-11, 72 h, MV4-11, MTT, 72 h, n.a. = no activity in a concentration of 1–80 μg/mL) was 22.4 µg/mL and 72.3 µM. Moreover, in series [1] (fold higher than compound 8), the “antiproliferative activity relative to phenyl derivative 8” value was 1.5–2 times. In addition, in series [2], the IC50 was 17.8 µg/mL and 58 µM. The IC50 in series [3] was 56 µg/mL and 182 µM. Moreover, the IC50 in series [4] was 27.8 µg/mL and 90.5 µM. For the same molecule, the IC50 in series [5] (Homo sapiens, LoVo/DX, 72 h, LoVo/DX, SRB, 72 h, read-out: IC50 ± SD LoVoDX) was 20 µg/mL and 65 µM. The “RI (resistance index)” value in series [5] (IC50 against LoVo/DX divided by IC50 against LoVo) is reported as 0.72.
